Experimental data taken from US20250206757A1 (GASHERBRUM BIO, INC., priority 2022, published 2025).

Each compound was assayed against GLP-1 Receptor (Homo sapiens, UniProt P43220) (assay: GLP-1R agonist cAMP stimulation assay (HEK293/GLP1R/CRE-LUC cells, HTRF cAMP dynamic 2 kit)). Conditions: HEK293/CRE-Luc cell line stably expressing the GLP-1 Receptor; 30 min incubation at 37° C.
Assay type: cell-based
Method: Activation of GLP-1 receptor is known to stimulate cyclic AMP (cAMP) production in cells which indicates primary coupling to the Gas subunit of the G protein heterotrimeric complex.
To optimize functional activity directed toward Gas coupling, a HEK293/CRE-Luc cell line developed by HDB stably expressing the GLP-1 Receptor was used. 200× concentration of compound working solutions were prepared (Agilent Technologies Bravo) with 1/2 log serial dilution in 384-well Echo LDV plate (Labcyte, Cat #LP-0200). 50 nL/well 200× concentration of compound working solutions were moved to 384-well white low volume plate (Greiner, Cat #784075) using Labcyte ECHO550. 1×10^5 cells/mL HEK293/GLP1R/CRE-LUC (HD Biosciences) cell suspensions prepared with assay buffer [DPBS containing 0.5 mM IBMX (Sigma, Cat #15879) and 0.10% BSA (GENVIEW, Cat #FA016-100g)], 10 μL cell suspensions were added to each well of previous generated assay plate which already contains 50 nL compound at 200× concentration using ThermoFisher Multidrop Combi (1000 cells/well). Seal the plate and incubate at 37° C. with 5% CO2 for 30 min.
After incubation the cAMP assay signal was generated using cAMP dynamic 2 Kit (Cisbio). 5 μL cAMP-d2 working solution was added to each well, followed with 5 μL Anti-cAMP antibody-cryptate working solution added to each well using ThermoFisher Multidrop Combi. Incubate at room temperature for 1 hour protected from light. Read the fluorescence at 665 and 615 nm with Reader PerkinElmer EnVision.

GLP-1 Receptor, sequence (P43220 24-463): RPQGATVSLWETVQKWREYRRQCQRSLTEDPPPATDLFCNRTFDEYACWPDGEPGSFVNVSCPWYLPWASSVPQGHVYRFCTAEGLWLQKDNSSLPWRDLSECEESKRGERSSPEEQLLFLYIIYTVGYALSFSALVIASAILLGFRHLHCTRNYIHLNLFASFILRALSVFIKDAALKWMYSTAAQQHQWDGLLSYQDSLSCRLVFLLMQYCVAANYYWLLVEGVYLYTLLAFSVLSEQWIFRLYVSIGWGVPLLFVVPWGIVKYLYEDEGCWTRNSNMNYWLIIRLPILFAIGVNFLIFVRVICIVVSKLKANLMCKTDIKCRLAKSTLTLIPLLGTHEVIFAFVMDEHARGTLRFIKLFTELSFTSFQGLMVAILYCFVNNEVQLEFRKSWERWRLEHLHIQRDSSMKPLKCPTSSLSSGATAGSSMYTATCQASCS

EC50 [nM] | SMILES
< 1 | CC(F)(F)c1nnc(-c2cc3nc(CN4CCc5cc(C(F)(F)F)c(OCc6ccc(Cl)cc6F)nc5C4)n(C[C@@H]4CCO4)c3cn2)[nH]1 [Compound 66, 2-[(4-chloro-2-fluorophenyl)methoxy]-7-({6-[5-(1,1-difluoroethyl)-4H-1,2,4-triazol-3-yl]-3-{[(2S)-oxetan-2-yl]methyl}-3H-imidazo[4,5-c]pyridin-2-yl}methyl)-3-(trifluoromethyl)-5,6,7,8-tetrahydro-1,7-naphthyridine]
1 to 300 | Fc1cc(Cl)ccc1COc1nc2c(cc1C(F)(F)F)CCN(Cc1nc3cc(-c4nnc(C(F)(F)F)[nH]4)ncc3n1C[C@H]1CCCO1)C2 [Compound 78, 2-[(4-chloro-2-fluorophenyl)methoxy]-7-[(3-{1[(2R)-oxolan-2-yl]methyl}-6-[5-(trifluoromethyl)-4H-1,2,4-triazol-3-yl]-3H-imidazo[4,5-c]pyridin-2-yl)methyl]-3-(trifluoromethyl)-5,6,7,8-tetrahydro-1,7-naphthyridine]
< 1 | Fc1cc(Cl)cc(F)c1COc1nc2c(cc1C(F)(F)F)CCN(Cc1nc3cc(-c4nnn[nH]4)ncc3n1C[C@@H]1CCO1)C2 [Compound 90, 2-[(4-chloro-2,6-difluorophenyl)methoxy]-7-[(3-{[(2S)-oxetan-2-yl]methyl}-6-(11H-1,2,3,4-tetrazol-5-yl)-3H-imidazo[4,5-c]pyridin-2-yl)methyl]-3-(trifluoromethyl)-5,6,7,8-tetrahydro-1,7-naphthyridine]
< 1 | Fc1cc(Cl)ccc1COc1nc2c(cc1C(F)(F)F)CCN(Cc1nc3cc(-c4nnc(S)[nH]4)ccc3n1C[C@@H]1CCO1)C2 [Compound 85, 5-[2-({2-[(4-chloro-2-fluorophenyl)methoxy]-3-(trifluoromethyl)-5,6,7,8-tetrahydro-1,7-naphthyridin-7-yl}methyl)-1-{[(2S)-oxetan-2-yl]methyl}-1H-1,3-benzodiazol-5-yl]-4H-1,2,4-triazole-3-thiol]
> 300 | O=c1cc(-c2cc3nc(CN4CCc5cc(C(F)(F)F)c(OCc6ccc(Cl)cc6F)nc5C4)n(C[C@@H]4CCO4)c3cn2)cc[nH]1 [Compound 100, 4-[2-({2-[(4-chloro-2-fluorophenyl)methoxy]-3-(trifluoromethyl)-5,6,7,8-tetrahydro-1,7-naphthyridin-7-yl}methyl)-3-{1[(2S)-oxetan-2-yl]methyl}-3H-imidazo[4,5-c]pyridin-6-yl]-1,2-dihydropyridin-2-one]
< 1 | Cc1nnc(-c2cc3nc(CN4CCc5cc(C(F)(F)F)c(OCc6c(F)cc(Cl)cc6F)nc5C4)n(C[C@@H]4CCO4)c3cn2)[nH]1 [Compound 63, 2-[(4-chloro-2,6-difluorophenyl)methoxy]-7-{[6-(5-methyl-4H-1,2,4-triazol-3-yl)-3-{[(2S)-oxetan-2-yl]methyl}-3H-imidazo[4,5-c]pyridin-2-yl]methyl}-3-(trifluoromethyl)-5,6,7,8-tetrahydro-1,7-naphthyridine]
< 1 | O=c1[nH]c(-c2cnc3c(c2)nc(CN2CCc4cc(C(F)(F)F)c(OCc5ccc(Cl)cc5F)nc4C2)n3C[C@@H]2CCO2)no1 [Compound 29, 3-[2-({2-[(4-chloro-2-fluorophenyl)methoxy]-3-(trifluoromethyl)-5,6,7,8-tetrahydro-1,7-naphthyridin-7-yl}methyl)-3-{[(2S)-oxetan-2-yl]methyl}-3H-imidazo[4,5-b]pyridin-6-yl]-4,5-dihydro-1,2,4-oxadiazol-5-one]
< 1 | CS(=O)(=O)NC(=O)c1ccc2c(c1)nc(CN1CCc3cc(C(F)(F)F)c(OCc4ccc(Cl)cc4F)nc3C1)n2C[C@@H]1CCO1 [Compound 93, 2-({2-[(4-chloro-2-fluorophenyl)methoxy]-3-(trifluoromethyl)-5,6,7,8-tetrahydro-1,7-naphthyridin-7-yl}methyl)-N-methanesulfonyl-1-{[(2S)-oxetan-2-yl]methyl}-1H-1,3-benzodiazole-5-carboxamide]

The remaining lines, values behind:

SMILES | EC50 [nM]
FC(F)(F)c1nnc(-c2cc3nc(CN4CCc5cc(C(F)(F)F)c(OCc6ccc(Cl)cn6)nc5C4)n(C[C@@H]4CCO4)c3cn2)[nH]1 [Compound 74, 2-[(5-chloropyridin-2-yl)methoxy]-7-[(3-{[(2S)-oxetan-2-yl]methyl}-6-[5-(trifluoromethyl)-4H-1,2,4-triazol-3-yl]-3H-imidazo[4,5-c]pyridin-2-yl)methyl]-3-(trifluoromethyl)-5,6,7,8-tetrahydro-1,7-naphthyridine] | < 1
COC(C)Cn1c(CN2CCc3cc(C(F)(F)F)c(OCc4ccc(Cl)cc4F)nc3C2)nc2cc(-c3nnc(C(F)(F)F)[nH]3)ncc21 (stereo in doubt) [Compound 81, 2-[(4-chloro-2-fluorophenyl)methoxy]-7-({3-[(2S)-2-methoxypropyl]-6-[5-(trifluoromethyl)-4H-1,2,4-triazol-3-yl]-3H-imidazo[4,5-c]pyridin-2-yl}methyl)-3-(trifluoromethyl)-5,6,7,8-tetrahydro-1,7-naphthyridine] | 1 to 300
Cc1ccc(COc2nc3c(cc2C(F)(F)F)CCN(Cc2nc4c(F)c(-c5noc(=O)[nH]5)ccc4n2C[C@@H]2CCO2)C3)c(Cl)c1 [Compound 45] | < 1
Cc1cc2c(nc1OCc1c(F)cc(Cl)cc1F)CN(Cc1nc3cc(-c4nnc(C(F)(F)F)[nH]4)cnc3n1C[C@@H]1CCO1)CC2 [Compound 51, 2-[(4-chloro-2,6-difluorophenyl)methoxy]-3-methyl-7-[(3-{1[(2S)-oxetan-2-yl]methyl}-6-[5-(trifluoromethyl)-4H-1,2,4-triazol-3-yl]-3H-imidazo[4,5-b]pyridin-2-yl)methyl]-5,6,7,8-tetrahydro-1,7-naphthyridine] | < 1
Fc1cc(Cl)cc(F)c1COc1nc2c(cc1C(F)(F)F)CCN(Cc1nc3cc(-c4nnn[nH]4)cnc3n1C[C@@H]1CCO1)C2 [Compound 89, 2-[(4-chloro-2,6-difluorophenyl)methoxy]-7-[(3-{[(2S)-oxetan-2-yl]methyl}-6-(11H-1,2,3,4-tetrazol-5-yl)-3H-imidazo[4,5-b]pyridin-2-yl)methyl]-3-(trifluoromethyl)-5,6,7,8-tetrahydro-1,7-naphthyridine] | < 1
Cc1cc2c(nc1OCc1ccc(Cl)cc1F)CN(Cc1nc3cc(-c4nnc(C(F)F)[nH]4)cnc3n1C[C@@H]1CCO1)CC2 [Compound 52, 2-[(4-chloro-2-fluorophenyl)methoxy]-7-({6-[5-(difluoromethyl)-4H-1,2,4-triazol-3-yl]-3-{[(2S)-oxetan-2-yl]methyl}-3H-imidazo[4,5-b]pyridin-2-yl}methyl)-3-methyl-5,6,7,8-tetrahydro-1,7-naphthyridine] | < 1
Cc1cc2c(nc1OCc1c(F)cc(Cl)cc1F)CN(Cc1nc3cc(-c4nnn[nH]4)ncc3n1C[C@@H]1CCO1)CC2 [Compound 91, 2-[(4-chloro-2,6-difluorophenyl)methoxy]-3-methyl-7-[(3-{[(2S)-oxetan-2-yl]methyl}-6-(1H-1,2,3,4-tetrazol-5-yl)-3H-imidazo[4,5-c]pyridin-2-yl)methyl]-5,6,7,8-tetrahydro-1,7-naphthyridine] | < 1
FC(F)(F)c1nnc(-c2cc3nc(CN4CCc5cc(C(F)(F)F)c(OCc6ccc(Cl)cc6)nc5C4)n(C[C@@H]4CCO4)c3cn2)[nH]1 [Compound 54, 2-[(4-chlorophenyl)methoxy]-7-[(3-{1[(2S)-oxetan-2-yl]methyl}-6-[5-(trifluoromethyl)-4H-1,2,4-triazol-3-yl]-3H-imidazo[4,5-c]pyridin-2-yl)methyl]-3-(trifluoromethyl)-5,6,7,8-tetrahydro-1,7-naphthyridine] | < 1
CNC(=O)c1ccc2c(nc(CN3CCc4cc(C(F)(F)F)c(OCc5ccc(Cl)cc5F)nc4C3)n2C[C@@H]2CCO2)c1F [Compound 22, 2-({2-[(4-chloro-2-fluorophenyl)methoxy]-3-(trifluoromethyl)-5,6,7,8-tetrahydro-1,7-naphthyridin-7-yl}methyl)-4-fluoro-N-methyl-1-{[(2S)-oxetan-2-yl]methyl}-1H-1,3-benzodiazole-5-carboxamide] | 1 to 300
Fc1cc(Cl)ccc1COc1nc2c(cc1C(F)(F)F)CCN(Cc1nc3cc(-c4nnc(C(F)(F)F)[nH]4)ncc3n1C[C@@H]1CCOC1)C2 [Compound 77, 2-[(4-chloro-2-fluorophenyl)methoxy]-7-[(3-{1[(3S)-oxolan-3-yl]methyl}-6-[5-(trifluoromethyl)-4H-1,2,4-triazol-3-yl]-3H-imidazo[4,5-c]pyridin-2-yl)methyl]-3-(trifluoromethyl)-5,6,7,8-tetrahydro-1,7-naphthyridine] | 1 to 300
Cc1cc(-c2nnc(C(F)(F)F)[nH]2)nnc1CN1CCc2cc(C(F)(F)F)c(OCc3ccc(Cl)cc3F)nc2C1 [Compound 13, 2-[(4-chloro-2-fluorophenyl)methoxy]-7-({4-methyl-6-[5-(trifluoromethyl)-4H-1,2,4-triazol-3-yl]pyridazin-3-yl}methyl)-3-(trifluoromethyl)-5,6,7,8-tetrahydro-1,7-naphthyridine] | > 300
